In patent US12042492B2 (priority 2020, dated 2024):
“Also recorded” adds a separate entry of the source. Marks after values point to notes of the source that are not given here.

Assays:
mAPP N2a cells [1] = test: qRT-PCR mRNA expression in mAPP N2a cells treated with ligand 1; type: cell-based, mouse
Procedure: The N2a cells grown for 6 days in a serum-free medium (1:1 mixture of DMEM and OptiMEM, plus penicillin and streptomycin (Invitrogen, Carlsbad, CA, USA) until the cells developed neuronal processes. As shown in (FIG. 10), these cells were used for 4 groups—one control group and 3 treatment groups. 1) untreated N2a cells (the control group), 2) N2a cells treated with ligand 1 (N2a+ligand 1), 3) N2a cells transfected mAPP with the (lipofectamine) (20 μM final concentration for 6 hrs (mAPP), 4) N2a cells transfected with mAPP cDNA for 6 hrs, treated with ligand 1 (mAPP+ligand 1 treatment group), N2a cells treated with ligand 1 for 24 hrs and then treated with the mAPP cDNA for 6 hrs (ligand 1+mAPP treatment group). As shown in (FIG. 10), the inventors performed 4 independent cell cultures and treatments for all experiments (n=4).
mRNA levels of mitochondrial dynamics and mitochondrial biogenesis and synaptic genes. Using the reagent TriZol (Invitrogen), the inventors isolated total RNA from 4 independent treatments of N2a cells (n=4) from control (untreated N2a cells) and experimental treatments (N2a cells treated with Ligand 1; N2a cells transfected with mAPP; N2a cells transfected with mAPP and then treated with Ligand 1. Using primer express Software (Applied Biosystems), the inventors designed the oligonucleotide primers for the housekeeping genes β-actin, GDPH; APP-related genes (APP, BACE1 and PSN1); mitochondrial structural genes; fission (Drp1 and Fis1); fusion genes (MFN1, MFN2, Opa1) (54), mitochondrial biogenesis genes (PGC1α, Nrf1, Nrf2, and Tfam) (Manczak et al., 2019), and synaptic proteins (SYN, PSD95 and MAP2). The primer sequences and amplicon sizes are listed in (Table 1). With SYBR-Green chemistry-based quantitative real-time RT-PCR, the inventors measured mRNA expression of the genes mentioned above as described by Manczak et al. 2019(54). Briefly, 2 μg of DNAse-treated total RNA was used as starting material, to which the inventors added 1 μl of oligo (dT), 1 μl of 10 mM dNTPs, 4 μl of 5× first strand buffer, 2 μl of 0.1 M DTT, and 1 μl RNAse outout. The reagents RNA, dT), and dNTPs were mixed first, then heated at 65° C. for 5 min, and finally chilled on ice until the remaining components were added. The samples were incubated at 42° C. for 2 min, and then 1 μl of Superscript II (40 U/μl) was added. The samples were then incubated at 42° C. for 50 min, at which time the reaction was inactivated by heating at 70° C. for 15 min.
Quantitative real-time PCR amplification reactions were performed in N2a cells in an ABI Prism 7900 sequence detection system (Applied Biosystems, Foster City, CA) in a 25-μl volume of total reaction mixture. The reaction mixture consisted of 1×PCR buffer containing SYBR-Green; 3 mM MgCl2; 100 nm of each primer; 200 nm of dATP, dGTP, and dCTP each; 400 nm of dUTP; 0.01 U/μl of AmpErase UNG; and 0.05 U/μl of AmpliTaq Gold. A 20 ng cDNA template was added to each reaction mixture.
The CT-values of β-actin was tested to determine the unregulated endogenous reference gene in N2a cells that were treated with Aβ and protective molecules, and in untreated N2a cells. In the latter case, the CT-value was similar in untreated and N2a cells treated with MTAs and Aβ. The CT-value is an important quantitative parameter in real-time PCR analysis as described in Gutala and Reddy (2004) (55). All RT-PCR reactions were carried out in triplicate, with no template control. The PCR conditions were: 50° C. for 2 min and 95° C. for 10 min, followed by 40 cycles of 95° C. for 15 sec and 60° C. for 1 min. The fluorescent spectra were recorded during the elongation phase of each PCR cycle. To distinguish specific amplicons from non-specific amplifications, a dissociation curve was generated. […]

mAPP N2a cells [2] = test: Immunoblotting analysis of protein levels in mAPP N2a cells; type: cell-based, mouse; conditions: immunoblot; for Nrf1 protein level / Nrf2 protein level: P=0.004
[3] = N2a + mAPP + ligand1 relative to mAPP N2a cells
[4] = N2a + mAPP + ligand1 relative to mAPP N2a cells, listed as ligand 1
[5] = N2a + mAPP + ligand1 relative to mAPP N2a cells, listed as ligand1
[6] = N2a + mAPP + ligand1 relative to mAPP N2a cells, negative = decrease
[7] = N2a + mAPP + ligand1 relative to untreated N2a cells
[8] = ligand 1 treated mAPP cells relative to mAPP cells, size of the decrease, P<0.05
[9] = mAPP+ligand 1 relative to mAPP cells, P=0.001
[10] = mAPP+ligand 1 relative to mAPP cells, P=0.002, listed as ligand 1
[11] = mAPP+ligand 1 relative to mAPP cells, listed as ligand 1
[12] = mAPP+ligand 1 relative to mAPP cells, listed as ligand1
[13] = mAPP+ligand 1 relative to mAPP cells, P=0.01, listed as ligand 1
[14] = mAPP+ligand 1 relative to mAPP cells, P=0.01, listed as ligand1
[15] = mAPP+ligand 1 relative to mAPP cells, P=0.02

For “[(6As,8S,10aS,12aS)-10a, 12a-dimethyl-2-oxo-3,4,4a,4b,5,6,6a,7,8,9,10,10b,11,12-tetradecahydro-1H-naphtho[2,1-f]quinolin-8-yl] 4-[4-[bis(2-chloroethyl)amino]phenyl]butanoate [Ligand 1]”, the “mRNA fold change Mfn1” value (mAPP N2a cells [1]; [3]) was 1.3 fold, the “mRNA fold change OPA1” value (mAPP N2a cells [1]; [3]) was 1.2 fold and the “mRNA fold change Mfn2” value (mAPP N2a cells [1]; [4]) was 1.5 fold. The “mRNA fold change Nrf1” value (mAPP N2a cells [1]; [4]) was 2.1 fold, the “mRNA fold change Nrf2” value (mAPP N2a cells [1]; [4]) was 2.1 fold and the “mRNA fold change PGC1a” value (mAPP N2a cells [1]; [4]) was 2.0 fold. For the same substance, the “mRNA fold change PSD95” value (mAPP N2a cells [1]; [4]) was 1.3 fold, the “mRNA fold change Synaptophysin” value (mAPP N2a cells [1]; [4]) was 1.9 fold and the “mRNA fold change TFAM” value (mAPP N2a cells [1]; [4]) was 1.8 fold. For the same substance, the “mRNA fold change Mfn2” value (mAPP N2a cells [1]; [5]) was 1.5* fold, the “mRNA fold change Nrf1” value (mAPP N2a cells [1]; [5]) was 2.1** fold and the “mRNA fold change Nrf2” value (mAPP N2a cells [1]; [5]) was 2.1** fold. The “mRNA fold change PGC1a” value (mAPP N2a cells [1]; [5]) was 2.0** fold, the “mRNA fold change PSD95” value (mAPP N2a cells [1]; [5]) was 1.8* fold and the “mRNA fold change Synaptophysin” value (mAPP N2a cells [1]; [5]) was 1.9* fold. For the same substance, the “mRNA fold change TFAM” value (mAPP N2a cells [1]; [5]) was 1.8* fold, the “mRNA fold change APP” value (mAPP N2a cells [1]; [6]) was −1.5* fold and the “mRNA fold change BACE1” value (mAPP N2a cells [1]; [6]) was −1.4* fold. The “mRNA fold change Drp1” value (mAPP N2a cells [1]; [6]) was −2.3** fold, the “mRNA fold change Fis1” value (mAPP N2a cells [1]; [6]) was −1.5* fold and the “mRNA fold change Presenilin1” value (mAPP N2a cells [1]; [6]) was −1.5* fold. The “mRNA fold change APP” value (mAPP N2a cells [1]; [7]) was 1.3 fold, the “mRNA fold change BACE1” value (mAPP N2a cells [1]; [7]) was 1.1 fold and the “mRNA fold change Drp1” value (mAPP N2a cells [1]; [7]) was 1.1 fold. The “mRNA fold change Fis1” value (mAPP N2a cells [1]; [7]) was 1.0 fold, the “mRNA fold change Mfn1” value (mAPP N2a cells [1]; [7]) was −1.2 fold and the “mRNA fold change Mfn2” value (mAPP N2a cells [1]; [7]) was 1.1 fold. The “mRNA fold change Nrf1” value (mAPP N2a cells [1]; [7]) was 1.2 fold, the “mRNA fold change Nrf2” value (mAPP N2a cells [1]; [7]) was 1.4 fold and the “mRNA fold change OPA1” value (mAPP N2a cells [1]; [7]) was 1.1 fold. For the same substance, the “mRNA fold change PGC1a” value (mAPP N2a cells [1]; [7]) was 1.2 fold, the “mRNA fold change PSD95” value (mAPP N2a cells [1]; [7]) was 1.3 fold and the “mRNA fold change Presenilin1” value (mAPP N2a cells [1]; [7]) was −1.2 fold. The “mRNA fold change Synaptophysin” value (mAPP N2a cells [1]; [7]) was 1.3 fold, the “mRNA fold change TFAM” value (mAPP N2a cells [1]; [7]) was 1.5 fold and the “APP mRNA, fold decreased” value (mAPP N2a cells [1]; [8]) was 1.5 fold. The “BACE1 mRNA, fold decreased” value (mAPP N2a cells [1]; [8]) was 1.4, the “PSN1 mRNA, fold decreased” value (mAPP N2a cells [1]; [8]) was 1.5 and the “Drp1 mRNA, fold reduced” value (mAPP N2a cells [1]; mAPP+ligand 1 treated cells relative to mAPP cells, size of the decrease, P<0.005) was 2.3 fold. The “Fis1 mRNA, fold reduced” value (mAPP N2a cells [1]; mAPP+ligand 1 treated cells relative to mAPP cells, size of the decrease, P<0.05) was 1.5 fold, the BACE1 protein level (mAPP N2a cells [2]; ligand 1 treated cells relative to mAPP cells) was “significantly reduced” and the “C-terminal fragment C99 protein level” value (mAPP N2a cells [2]; [9]) was “significantly decreased; also recorded: significantly reduced”. The Fis1 protein level (mAPP N2a cells [2]; [9]) was “significantly decreased”, the “C-terminal fragment C83 protein level” value (mAPP N2a cells [2]; [10]) was “significantly decreased; also recorded: significantly reduced” and the Mfn1 protein level (mAPP N2a cells [2]; [10]) was “increased”. For the same substance, the Mfn1 protein level (mAPP N2a cells [2]; mAPP+ligand 1 relative to mAPP cells, P=0.002, listed as ligand1) was “significantly increased”, the Nrf1 protein level (mAPP N2a cells [2]; [11]) was “increased” and the Nrf2 protein level (mAPP N2a cells [2]; [11]) was “increased”. For the same substance, the Nrf1 protein level (mAPP N2a cells [2]; [12]) was “significantly increased”, the Nrf2 protein level (mAPP N2a cells [2]; [12]) was “significantly increased” and the Drp1 protein level (mAPP N2a cells [2]; mAPP+ligand 1 relative to mAPP cells, P=0.01) was “significantly decreased”. The Opa1 protein level (mAPP N2a cells [2]; [13]) was “increased”, the PGC1α protein level (mAPP N2a cells [2]; [13]) was “increased” and the Opa1 protein level (mAPP N2a cells [2]; [14]) was “significantly increased”. For the same substance, the PGC1α protein level (mAPP N2a cells [2]; [14]) was “significantly increased”, the PSD95 protein level (mAPP N2a cells [2]; [15]) was “significantly increased” and the Synaptophysin protein level (mAPP N2a cells [2]; [15]) was “significantly increased”. For the same substance, the “Full-length mutant APP protein level” value (mAPP N2a cells [2]; mAPP+ligand 1 relative to mAPP cells, P=0.03) was “significantly decreased; also recorded: significantly reduced”, the MAP2 protein level (mAPP N2a cells [2]; mAPP+ligand 1 relative to mAPP cells, P=0.04) was “significantly increased” and the Mfn2 protein level (mAPP N2a cells [2]; [11]) was “increased”. For the same substance, the TFAM protein level (mAPP N2a cells [2]; [11]) was “increased”, the Mfn2 protein level (mAPP N2a cells [2]; [12]) was “significantly increased” and the TFAM protein level (mAPP N2a cells [2]; [12]) was “significantly increased”.
